Reference: patent US8445532B2, “Use of phthalide derivatives” (priority 2005, dated 2013)
Values after ≈ are worked out from the molar mass of the structure shown.

What was measured:
K562/Adr = test: Growth inhibiting effect of PA on drug resistant cells (MTT); assay type: cell-based; conditions: Homo sapiens, PA alone, read-out: IC50 growth inhibition
Protocol: (§1) Methods: 1×10^3 cells per well were inoculated onto a 96-well plate. PA was added to K562/Adr directly and to KBV200 and MCF-7/Adr after adhesion. The concentrations of the drugs were 0, 0.1, 0.5, 1, 5, 10, 20, 40, 80, 160 μg/mL. MTT was determined according to the method of example 2 and the IC50 was calculated. The experiment was repeated three times.

KBv200 = test: as above; assay type: cell-based; conditions: Homo sapiens; KBv200, PA alone; read-out: IC50 growth inhibition
Protocol: as §1

MCF-7/Adr = test: as above; assay type: cell-based; conditions: Homo sapiens, NCI/ADR-RES, PA alone, read-out: IC50 growth inhibition
Protocol: as §1

K562/Adr cells = test: Sensitizing effect of PA to conventional chemotherapeutic drugs (MTT); assay type: cell-based, human; conditions: IC50 without sensitizer / with sensitizer 10 μg/mL
Protocol: (§2) The cells at logarithmic phase were collected and added into RPMI 1640 medium (containing 10% fetal bovine serum) to make cell suspensions. The cell suspension was added to 96-well plate at 100 μl per well, and the cell number was 2×10^3 (suspending cells) or 1×10^3 (adherent cells) per well. After inoculation, the suspending cells were adapted for half an hour on the plate and the adherent cells were cultivated to allow adhesion before the drugs were added. The control groups (Ctrl) were added with anti-tumor drugs but without PA. The drug concentration of each PA group was 10 μg/mL. The concentrations of chemotherapeutic drugs increased from 0.001 μg/mL to 20 μg/mL. There Were six parallel repeated wells for every concentration gradient. RPMI 1640 was added up to a finally volume of 200 μl per well. The cells were cultured at the condition of 37° C., saturated humidity, 5% CO2 for 68 hours. The MTT was determined and the IC50 was calculated as in example 4.
(§3) The formula of resistant factor: Resistant Factor (RF)=the IC50 without sensitizer/the IC50 with sensitizer.

KBv200 cells = test: as above; assay type: cell-based, human; conditions: KBv200, IC50 without sensitizer / with sensitizer 10 μg/mL
Protocol: as §2, §3

MCF-7/Adr cells = test: as above; assay type: cell-based, human; conditions: IC50 without sensitizer / with sensitizer 10 μg/mL
Protocol: as §2, §3

Row | Structure (SMILES) | IC50 (K562/Adr) [µg/mL] | IC50 (KBv200) [µg/mL] | IC50 (MCF-7/Adr) [µg/mL] | RF (Ctrl/S), Adr (K562/Adr cells) | RF (Ctrl/S), DDP (K562/Adr cells) | RF (Ctrl/S), Taxol (K562/Adr cells) | RF (Ctrl/S), Vin (K562/Adr cells) | RF (Ctrl/S), Adr (KBv200 cells) | RF (Ctrl/S), DDP (KBv200 cells) | RF (Ctrl/S), Taxol (KBv200 cells) | RF (Ctrl/S), Vin (KBv200 cells) | RF (Ctrl/S), Adr (MCF-7/Adr cells) | RF (Ctrl/S), DDP (MCF-7/Adr cells) | RF (Ctrl/S), Taxol (MCF-7/Adr cells) | RF (Ctrl/S), Vin (MCF-7/Adr cells)
1 | CCCCC1OC(=O)c2cccc(O)c21 (stereo not drawn) [S2] | 41.4 ± 3.53 (≈ 201 µM) | 26.4 ± 1.98 (≈ 128 µM) | 29.4 ± 2.8 (≈ 143 µM) | 41.12 | 5.698 | 10.57 | 1.757 | 12.23 | 2.767 | 10.83 | 11.40 | 6.939 | 2.565 | 10.19 | 6.239
2 | CCC/C=C1\OC(=O)C2=C1CCC=C2 [S4] | 32.4 ± 1.13 (≈ 170 µM) | 32.5 ± 1.03 (≈ 171 µM) | 47.3 ± 2.12 (≈ 249 µM) | 6.349 | 3.007 | 2.412 | 6.432 | 5.331 | 6.981 | 6.416 | 13.02 | 3.114 | 5.125 | 4.279 | 26.01
3 | CCC/C=C1\OC(=O)C2=C1CC[C@H]1C3C=C4C(=O)O/C(=C\CCC)[C@@]4(CC3)C21 (stereo partly drawn) [S6] | 29.8 ± 0.995 (≈ 78.3 µM) | 35.2 ± 2.15 (≈ 92.6 µM) | 44.5 ± 3.99 (≈ 117 µM) | 6.249 | 1.371 | 1.641 | 1.833 | 2.297 | 2.622 | 8.72 | 3.342 | 12.59 | 2.539 | 3.932 | 13.22
4 | CCC/C=C1\OC(=O)C2=C1CCC1C(CCC)C3(OC(=O)C4=C3CCC=C4)C21 (stereo not drawn) [S7] | 20.4 ± 2.61 (≈ 53.7 µM) | 36.9 ± 2.19 (≈ 97 µM) | 39.6 ± 4.61 (≈ 104 µM) | 8.257 | 0.653 | 1.550 | 3.963 | 2.405 | 5.939 | 5.179 | 7.376 | 14.12 | 6.516 | 7.023 | 3.831
5 | CCC/C=C1\OC(=O)C2=CC3CC[C@]21C1C2=C(CC[C@@H]31)C(CCCC)OC2=O (stereo partly drawn) [S8] | 31.3 ± 1.87 (≈ 81.8 µM) | 38.6 ± 2.17 (≈ 101 µM) | 43.2 ± 3.14 (≈ 113 µM) | 1.796 | 2.722 | 3.506 | 7.918 | 3.623 | 4.375 | 3.87 | 7.326 | 5.639 | 6.407 | 1.612 | 9.597
